Consider 4 compounds from patent US20060148767A1, “Use of acyl salicylates as heat shock inducers” (priority 2001, published 2006).

A short description of data set [1]: Stability as crystalline compound and in solution. Type of data set: physicochemical. On the procedure:
The mixture was stirred at room temperature for 30 minutes and kept at 70° C. for 2 hours. The reaction mixture was poured into ice water and the precipitated product was filtered in vacuo, dried and recrystallized tree times from toluene or ethanol as solvent. […] The ^1H-NMR spectrum of the synthesized propanoyl salicylate is consistent with the proposed structure.

The next data set concerns Hsp70. Description: Heat shock response in NHEK cells, Hsp70 ELISA. Type of data set: cell-based. The note with it: NHEK keratinocytes, 18 hours at 37° C., no heat shock. As for the experimental part: Acetyl, propanoyl, n-butanoyl, n-octanoyl and n-decanoyl salicylates, synthesized according to Example 1 or 2, were tested for their ability to induce heat shock response in an in vitro system using cells NHEK.
NHEK cells, grown at 37° C. to 75% confluence, were treated with different doses of propanoyl, n-butanoyl, n-octanoyl and n-decanoyl salicylates at a concentration range from 0 to 50 μM, using 50 mM sorbitol and heat shock at 42° C. as positive controls. After incubation for 18 hours at 37° C., Hsp70 levels were quantitatively determined on keratinocytes using the ELISA kit by StressGen.
Background: In an ELISA, binding on a coated surface is turned into a signal by an enzyme label.

The subject of a further data set is human Hsp70 promoter. The data set can be described thus: Heat shock induction in L 929 fibroblast cells, luciferase under human Hsp70 promoter. Type of data set: cell-based, mouse. The conditions noted are these: for increase of heat shock response with respect to the control: 37° C.; for increase of heat shock response compared with the control: 40° C. As for the experimental part:
Acetyl, propanoyl, n-butanoyl, n-octanoyl and n-decanoyl salicylates were tested for their ability to induce heat shock response in an in vitro system using L 929 fibroblast cells, in which the enzyme luciferase was cloned under the transcriptional control of the human Hsp70 promoter (Proc. Natl. Acad. Sci USA, 92, 7207-7211, 1995). The effects of the mentioned compounds on heat shock induction at different temperatures have been compared using Bimoclomol as reference compound (Table 1). As reported in Table 1, propanoyl salicylate and Bimoclomol at 37° C. increase the heat shock response by 33% with respect to the control, while n-butanoyl, n-octanoyl and n-decanoyl salicylates increase it up to 67%. […] (Nature Medicine, 3, 1150-1154, 1997).

The next data set deals with UV-B induced erythema. The data set can be described thus: Prevention and repair of UV-B induced skin damage. Type of data set: in vivo. The conditions noted are these: guinea pigs, topical; untreated: erythema observed four hours after irradiation.
Data set [2] concerns the target heat shock transcription factor (HSF) (Homo sapiens, UniProt Q00613). The note with it: 2-30 mM; cited from earlier work.
The subject of a further data set is heat shock response. The conditions noted are these: cited from earlier work.
Setting [3] is: temperature stress 37° C., control (None) 0.3.
Where [4] appears, read: temperature stress 40° C., control (None) 4.6.

Chain of heat shock transcription factor (HSF) (Q00613 whole entry): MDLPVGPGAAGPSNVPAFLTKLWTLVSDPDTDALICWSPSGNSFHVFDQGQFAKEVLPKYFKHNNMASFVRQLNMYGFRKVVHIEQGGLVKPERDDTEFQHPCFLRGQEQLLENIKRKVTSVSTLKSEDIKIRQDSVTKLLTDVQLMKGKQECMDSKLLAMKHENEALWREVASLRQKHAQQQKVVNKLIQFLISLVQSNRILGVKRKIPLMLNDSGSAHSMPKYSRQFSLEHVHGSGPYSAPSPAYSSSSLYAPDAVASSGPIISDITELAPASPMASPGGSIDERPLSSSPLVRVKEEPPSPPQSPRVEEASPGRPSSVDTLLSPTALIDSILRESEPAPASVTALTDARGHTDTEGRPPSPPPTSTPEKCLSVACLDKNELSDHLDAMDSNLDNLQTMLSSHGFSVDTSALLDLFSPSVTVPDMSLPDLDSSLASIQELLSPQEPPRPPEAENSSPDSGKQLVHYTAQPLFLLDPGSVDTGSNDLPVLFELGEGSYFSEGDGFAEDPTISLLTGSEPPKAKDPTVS
Procedure for UV-B induced erythema: The effect of acyl-salicylates in the prevention and repair of UV-B induced skin damage was determined with an in vivo test, on female Hartley albino guinea pigs, using the propanoyl salicylate as model compound. The animals, that weighed about 400 g, were shaved with a commercial cream 24 h before irradiation. Propanoyl salicylate was applied 120 minutes before irradiation on the head distal area, on a 5 cm^2 rectangular area at a dose of about 2 mg/cm^2, the head proximal area serving as control site. A bank of four lamps providing a mean irradiation of about 1.2 mW/cm^2 at 310 nm was used as UV-B source. Following light exposure, sites were occluded with a cotton pad. The erythema following UV-B exposure was evaluated according to the following scale: not irradiated, 0, pale pink; slight erythema, 1, pink; moderate erythema, 2, intense pink; severe erythema, 3, intense pink, edema; ulcerated erythema, 4, intense pink, ulceration. One MED (minimal erythemal dose to obtain an erythema grade 1) for untreated animals corresponds to 5 minutes exposure at 400 mJ/cm^2. The protection effect was calculated as the ratio of protected skin MED to unprotected skin MED.

In the case of `CCC(=O)OC(=O)c1ccccc1O` [Propanoyl salicylate], the stability result in data set [1] was “compatible with its use in cosmetic and pharmaceutical formulations”. Further, the “increase of Hsp70 levels” value with Hsp70 (5 μM) is on record as “up to 89%”. Besides, in the data set on human Hsp70 promoter, the “increase of heat shock response with respect to the control” value is 33% and the “increase of heat shock response compared with the control” value turned out to be 107%. Also, the Luciferase activity in the data set with human Hsp70 promoter (setting [3]) was 0.4 arbitrary units × 10^−5. The Luciferase activity with human Hsp70 promoter (setting [4]) stood at 9.5 arbitrary units × 10^−5. In addition, the “time after UV-B irradiation at which erythema appeared in the treated area” value with UV-B induced erythema was in the range of 7 to 10 h.

Take `CCCCCCCC(=O)OC(=O)c1ccccc1O` [Octanoyl salicylate, n-octanoyl salicylate]: in the data set with Hsp70 (50 μM), the “increase of Hsp70 levels” value is “up to 130%”. Also, the Luciferase activity in the data set on human Hsp70 promoter (setting [3]) is 0.5 arbitrary units × 10^−5; with human Hsp70 promoter (setting [4]) it was 6.3 arbitrary units × 10^−5.

As to `O=C([O-])c1ccccc1O.[Na+]` [sodium salicylate], in data set [2], the “heat shock gene transcription” value is on record as “does not induce heat shock gene transcription”.

Regarding `OC(CO/N=C(\Cl)c1cccnc1)CN1CCCCC1` (stereo not shown) [Bimoclomol, reference compound], in the data set with heat shock response, the “temperature of maximum induction activity” value is 43 °C. Besides, in the data set on human Hsp70 promoter, the “increase of heat shock response with respect to the control” value is reported as 33% and the “increase of heat shock response compared with the control” value amounted to 20%. For the same compound, in the data set with human Hsp70 promoter (setting [3]), the Luciferase activity is given as 0.4 arbitrary units × 10^−5. Moreover, in the data set on human Hsp70 promoter (setting [4]), the Luciferase activity came out at 5.5 arbitrary units × 10^−5.
